# Experimental data from PubChem BioAssay AID504473 (NMMLSC, 2011).
# The source made the active and inactive calls.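 How the source made its calls: active means GFP ratio to DMSO above 1.5 or below 0.66; inactive means the rest.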
# What was measured:
# Assay in all cases: expression changes of rapamycin-responsive GFP fusion proteins, S. cerevisiae, GFP-tagged clone panel, flow cytometry (AID 504473);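 further: median GFP fluorescence of the cells measured by high-throughput flow cytometry; test concentration not given here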
# Details in all cases: S. cerevisiae GFP-tagged strains, 3 h
# YML128C = system: YML128C
# YDL130W = system: YDL130W
# YJR148W = system: YJR148W
# YDR399W = system: YDR399W
# YKL086W = system: YKL086W
# YIL051C = system: YIL051C
# YKL119C = system: YKL119C
# YPR132W = system: YPR132W
# YNL214W = system: YNL214W
# YOR038C = system: YOR038C
# YFR031C-A = system: YFR031C-A
# YOR173W = system: YOR173W
# YER081W = system: YER081W
# YAL061W = system: YAL061W
# YGR121C = system: YGR121C
# YMR251W-A = system: YMR251W-A
# YER156C = system: YER156C
# YFR053C = system: YFR053C
# YJL056C = system: YJL056C
# YDL205C = system: YDL205C
# YER117W = system: YER117W
# YDR382W = system: YDR382W
# YHR018C = system: YHR018C
# YIL069C = system: YIL069C
# YIL052C = system: YIL052C
# YOL052C-A = system: YOL052C-A
# YLR237W = system: YLR237W
# YNL112W = system: YNL112W
# YNL068C = system: YNL068C
# YPR145W = system: YPR145W
# YDR453C = system: YDR453C
# YCR002C = system: YCR002C
# YHR203C = system: YHR203C
# YNL142W = system: YNL142W
# YOR371C = system: YOR371C
# YCL064C = system: YCL064C
# YML026C = system: YML026C
# YHR141C = system: YHR141C
# YEL007W = system: YEL007W
# YML004C = system: YML004C
# YPL220W = system: YPL220W
# YHR144C = system: YHR144C
# YDR070C = system: YDR070C
# YMR105C = system: YMR105C
# YIL066C = system: YIL066C
# YKR093W = system: YKR093W
# YKR039W = system: YKR039W
# YKL103C = system: YKL103C
compound,measurement,setting,value
CNc1nc(N)c([N+](=O)[O-])c(Nc2cccc(F)c2)n1,GFP ratio to DMSO,YML128C,1.68
same,GFP ratio to DMSO,YDL130W,0.917 (inactive)
same,GFP ratio to DMSO,YJR148W,3.13
same,GFP ratio to DMSO,YDR399W,0.957 (inactive)
same,GFP ratio to DMSO,YKL086W,1.17 (inactive)
same,GFP ratio to DMSO,YIL051C,1.3 (inactive)
same,GFP ratio to DMSO,YKL119C,0.959 (inactive)
same,GFP ratio to DMSO,YPR132W,0.841 (inactive)
same,GFP ratio to DMSO,YNL214W,0.945 (inactive)
same,GFP ratio to DMSO,YOR038C,1.15 (inactive)
same,GFP ratio to DMSO,YFR031C-A,0.845 (inactive)
same,GFP ratio to DMSO,YOR173W,1.45 (inactive)
same,GFP ratio to DMSO,YER081W,1.07 (inactive)
same,GFP ratio to DMSO,YAL061W,1.57
same,GFP ratio to DMSO,YGR121C,1.38 (inactive)
same,GFP ratio to DMSO,YMR251W-A,1.64
same,GFP ratio to DMSO,YER156C,1.08 (inactive)
same,GFP ratio to DMSO,YFR053C,1.46 (inactive)
same,GFP ratio to DMSO,YJL056C,0.886 (inactive)
same,GFP ratio to DMSO,YDL205C,0.958 (inactive)
same,GFP ratio to DMSO,YER117W,0.434
same,GFP ratio to DMSO,YDR382W,0.981 (inactive)
same,GFP ratio to DMSO,YHR018C,1.14 (inactive)
same,GFP ratio to DMSO,YIL069C,0.764 (inactive)
same,GFP ratio to DMSO,YIL052C,0.769 (inactive)
same,GFP ratio to DMSO,YOL052C-A,2.48
same,GFP ratio to DMSO,YLR237W,0.775 (inactive)
same,GFP ratio to DMSO,YNL112W,0.894 (inactive)
same,GFP ratio to DMSO,YNL068C,1.09 (inactive)
same,GFP ratio to DMSO,YPR145W,1.98
same,GFP ratio to DMSO,YDR453C,1.5 (inactive)
same,GFP ratio to DMSO,YCR002C,0.939 (inactive)
same,GFP ratio to DMSO,YHR203C,0.857 (inactive)
same,GFP ratio to DMSO,YNL142W,9.4
same,GFP ratio to DMSO,YOR371C,0.944 (inactive)
same,GFP ratio to DMSO,YCL064C,1.15 (inactive)
same,GFP ratio to DMSO,YML026C,0.557
same,GFP ratio to DMSO,YHR141C,0.925 (inactive)
same,GFP ratio to DMSO,YEL007W,0.993 (inactive)
same,GFP ratio to DMSO,YML004C,1.28 (inactive)
same,GFP ratio to DMSO,YPL220W,1.04 (inactive)
same,GFP ratio to DMSO,YHR144C,0.778 (inactive)
same,GFP ratio to DMSO,YDR070C,2.45
same,GFP ratio to DMSO,YMR105C,1.72
same,GFP ratio to DMSO,YIL066C,1.04 (inactive)
same,GFP ratio to DMSO,YKR093W,4.31
same,GFP ratio to DMSO,YKR039W,4.91
same,GFP ratio to DMSO,YKL103C,2.2
